Data on six molecules can be found in patent US20240148820A1 (priority 2021, published 2024).

In data set [1] the target is Spike of SARS-CoV-2 / ACE2-human (Severe acute respiratory syndrome coronavirus 2, UniProt P0DTC2). The class given is cell-based, SARS-CoV-2 / human.
The test system of data set [2] is A(H1N1) virus. In kind it is cell-based. To be noted: virus pretreated 45 min, attached to MDCK cells 1 h.
In data set [3] the test system is A(H1N1) virus.
Data set [4] deals with A(H1N1) virus. In kind it is cell-based, A/Hong Kong/415742M/2009(H1N1).
Data set [5] deals with SARS-CoV-2. In kind it is cell-based, human.
For data set [6], the system named is SARS-CoV-2. To be noted: cited from earlier work.
The subject of data set [7] is SARS-CoV-2. In kind it is cell-based.
The test system of another data set is SARS-CoV. The arrangement: species or system BALB/c mice. To be noted: in vivo.
In data set [8] the test system is SARS-CoV-2. To be noted: in vivo.
The test system of data set [9] is coronavirus or influenza virus. The note with it: oral inoculation or intraperitoneal injection (refs 29, 30, 39, 41); cited from earlier work.
Data set [10] has as its system A(H1N1) virus. More on the design: species or system BALB/c mice. To be noted: in vivo.
For another data set, the target named is S protein of SARS-CoV-2 (Severe acute respiratory syndrome coronavirus 2, UniProt P0DTC2). The class given is binding.
In a further data set the test system is MDCK cells. Nature of the data set: Cytotoxicity assay (MTT).
Another data set relates to turkey red blood cells. To be noted: normalized to Triton X-100.
Data set [11] deals with SARS-CoV-2.

≈ marks a conversion by molar mass, not a printed value. Entries after “also recorded” stand apart in the source; their conditions may differ. Where a SMILES comes first, the peptide text is derived from it. Where no end group is shown, it is not given here.

As for `CO/C1=C\C(C)=C\[C@@H](C)[C@@H](O)[C@@H](C)C/C(C)=C/C=C/[C@H](OC)[C@@H]([C@@H](C)[C@@H](O)[C@H](C)[C@@]2(O)C[C@@H](O)[C@H](C)[C@@H](C(C)C)O2)OC1=O` [bafilomycin A1], in data set [1], the “spike-ACE2 mediated cell fusion” value is on record as “fusion inhibition”.

Take Triton X-100: in the data set with A(H1N1) virus [2], the “viral attachment to cells (RNA copies of attached virus)” value was “significantly reduced”.

Regarding `CC[C@H](C)[C@H](NC(=O)[C@H](C)NC(=O)CNC(=O)[C@H](CC(N)=O)NC(=O)[C@H](CO)NC(=O)[C@H](Cc1ccccc1)NC(=O)[C@H](CCCNC(=N)N)NC(=O)[C@H](Cc1c[nH]cn1)NC(=O)[C@H](CS)NC(=O)[C@H](CCC(N)=O)NC(=O)[C@H](CO)NC(=O)[C@H](CC(=O)O)NC(=O)[C@H](Cc1c[nH]c2ccccc12)NC(=O)[C@H](CCCNC(=N)N)NC(=O)CNC(=O)[C@H](CC(N)=O)NC(=O)[C@@H](NC(=O)[C@@H](N)Cc1ccccc1)[C@@H](C)CC)C(=O)N[C@@H](C)C(=O)N[C@@H](CS)C(=O)N[C@@H](C)C(=O)O` [U4] (H-FINGRWDSQCHRFSNGAIACA-OH; N-terminus and C-terminus assumed), the “IC50 against A(H1N1) virus” value in the data set on A(H1N1) virus [3] was 6.6 µg/mL (≈ 2.8 µM). The “antiviral activity against A(H1N1) virus compared with Urumin” value with A(H1N1) virus [4] is reported as “more potent antiviral activity than that of Urumin”.

For `CCN(CC)CCCC(C)Nc1ccnc2cc(Cl)ccc12` (stereo not drawn) [chloroquine], in the data set on SARS-CoV-2 [5], the “SARS-CoV-2 replication in ex vivo human lung tissues” value is on record as “significantly inhibited SARS-CoV-2 replication”. The “SARS-CoV-2 replication in Calu-3 cells (reference 24)” value in the data set with SARS-CoV-2 [6] is given as “cannot inhibit SARS-CoV-2 replication”. In addition, in the data set with SARS-CoV-2 [7], the “antiviral activity when cells treated before or after infection” value was “significantly less antiviral activity” and the “viral replication when treated during viral infection” value is reported as “effectively inhibit viral replication; also recorded: more effectively inhibited viral replication”. In the data set with SARS-CoV, the “SARS-CoV replication in mouse lungs, atomization inhalation” value was “could inhibit; also recorded: inhibited”. Moreover, in the data set on SARS-CoV (mouse), the “1-day prophylactic activity against SARS-CoV replication” value is “could not provide 1-day prophylactic activity” and the “inhibition of SARS-CoV replication, one dose before viral inoculation” value was 3-5 fold. In addition, in the data set on SARS-CoV-2 [8], the “SARS-CoV-2 replication in hamster lungs (in words)” value was “inhibited SARS-CoV-2 replication” and the “inhibition of SARS-CoV-2 replication in hamster lungs” value is listed as 2 fold. Also, in data set [9], the “coronavirus or influenza virus replication in vivo after systemic administration” value was “could not inhibit coronavirus or influenza virus replication in vivo”. Also, in the data set with A(H1N1) virus [10], the “A(H1N1) virus replication in mouse lungs (in words)” value was “inhibited A(H1N1) virus replication” and the “A(H1N1) virus replication in mouse lungs, atomization inhalation” value is reported as “could inhibit; also recorded: inhibited”. In the data set on A(H1N1) virus [10] (mouse), the “1-day prophylactic activity against A(H1N1) virus replication” value is reported as “could not provide 1-day prophylactic activity”; the “inhibition of A(H1N1) virus replication in mice” value stood at 3.5 fold; the “inhibition of A(H1N1) virus replication, one dose before viral inoculation” value is on record as 3-5 fold.

As for IPLRGAFINGRWDSQCHRFS [U5], the “IC50 against A(H1N1) virus” value in the data set on A(H1N1) virus [3] turned out to be 12.9 µg/mL. In addition, at S protein of SARS-CoV-2, the “binding to S protein of SARS-CoV-2” value is reported as “bound to S protein” and the “effect of U5 on P16 binding to S protein” value is on record as “reduced P16 binding to S protein; also recorded: blocked P16 binding to S protein”. Besides, the “spike-ACE2 mediated cell fusion” value in data set [1] is “did not inhibit spike-ACE2 mediated fusion”. For the same molecule, in the data set with A(H1N1) virus [4], the “antiviral activity against A(H1N1) virus compared with Urumin” value is on record as “more potent antiviral activity than that of Urumin”.

Take “RGAHIKGRWKSRCHRF [P16, RGAHIKGRWKSRCHRF]”: in the data set on A(H1N1) virus [3], the “IC50 against A(H1N1) virus” value turned out to be 3.9 µg/mL. Besides, the “cytotoxicity on MDCK cells” value in the data set with MDCK cells (MDCK cells treated by 1 mg ml^−1 of P16) was “no significant cytotoxicity”. In addition, the TC50 with MDCK cells (MDCK cells, MTT, 24 h) is above 1000 µg/mL. The “IC50 against A(H3N2)” value with A(H3N2) is 1.6 µg/mL. Further, the “hemolysis of turkey red blood cells” value in the data set with turkey red blood cells was “no significant hemolysis”. In the data set with FluB, the “IC50 against FluB” value turned out to be 7.1 µg/mL. Moreover, in the data set with SARS-CoV-2 [11], the “IC50 for SARS-CoV-2 B.1.1.63” value was 3.0 µg/mL, the “IC50 for SARS-CoV-2 B.1.617.2” value worked out at 3.9 µg/mL and the “IC50 for SARS-CoV-2 HKU001a” value turned out to be 2.9 µg/mL.
